In the assay the target is SARS-CoV-2 Papain-like (PLpro) protease (Severe acute respiratory syndrome coronavirus 2, UniProt P0DTD1). As to the kind of experiment: SARS-CoV-2 Papain-like (PLpro) protease biochemical enzyme inhibition assay (ubiquitin-fluorophore substrate, Ub-R110).
Setting [1] is: Ub-R110 substrate, run in duplicate, read-out: PLpro IC50.

The structures appear in SMILES notation. Read-outs that look alike come from different tables or passages of the source. A value given as a limit tells only on which side of the number the result lay.

Take `CN(C#N)NC(=O)C(=O)NCc1ccccc1C(=O)NC1(c2ccc(F)c3ccccc23)CC1` [Example 124]: under setting [1], the IC50 (in general, the concentration that gives 50% inhibition) lay in the range of 1 to 10 µM. Regarding `C#C[C@H](C)NC(=O)C(=O)NCc1ccccc1C(=O)NC1(c2cc(F)cc(-c3cnn(C4CC4)c3)c2)CC1` [Example 141], the concentration for half-maximal inhibition (IC50) under setting [1] was in the range of 0.1 to 1 µM. Turning to `C[C@@H](C#Cc1ncccc1C(F)(F)F)NC(=O)C(=O)NCc1ccccc1C(=O)NC1(c2cc(F)cc(-c3cnn(C4CC4)c3)c2)CC1` [Example 142], under setting [1], the IC50 fell in the range of 0.1 to 1 µM. Consider `C[C@@H](C#Cc1ncco1)NC(=O)C(=O)NCc1ccccc1C(=O)NC1(c2cc(F)cc(-c3cnn(C4CC4)c3)c2)CC1` [Example 143], for which the half-inhibitory concentration (IC50) under setting [1] was in the range of 1 to 10 µM.

On to `Cn1cc2cc(C3(NC(=O)c4ccccc4CNC(=O)C(=O)NCC#Cc4ccc(Cl)cc4F)CC3)ccc2n1` [Example 148], for which, under setting [1], the half-inhibitory concentration (IC50) is under 0.1 µM. As for `CC#CCNC(=O)C(=O)NCc1ccccc1C(=O)NC1(c2cccc3ccccc23)CC1` [Example 150], under setting [1], the 50% inhibitory concentration (IC50) lay in the range of 1 to 10 µM.

`C#C[C@@H](C)NC(=O)C(=O)NCc1ccccc1C(=O)NC1(c2cccc3ccccc23)CC1` [Example 157]: the half-maximal inhibitory concentration (IC50) under setting [1] was in the range of 1 to 10 µM.

Consider `O=C(NC/C=C1\CCOC1=O)C(=O)NCc1ccccc1C(=O)NC1(c2ccc3ccccc3c2)CC1` [Example 162], for which, under setting [1], the IC50 was in the range of 0.1 to 1 µM. On to `C#C[C@H](C)NC(=O)C(=O)NCc1ccccc1C(=O)NC1(c2ccc3ccccc3c2)CC1` [Example 164], for which the 50% inhibitory concentration (IC50) under setting [1] was in the range of 1 to 10 µM. In the case of `Cn1cc(C#CCNC(=O)C(=O)NCc2ccccc2C(=O)NC2(c3ccc4ccccc4c3)CC2)cn1` [Example 169], the IC50 under setting [1] was over 10 µM. For the compound `O=C(NCC#Cc1cccnc1)C(=O)NCc1ccccc1C(=O)NC1(c2ccc3ccccc3c2)CC1` [Example 170], the half-maximal inhibitory concentration (IC50) under setting [1] was 1 to 10 µM.

Regarding `N#Cc1ncc(C#CCNC(=O)C(=O)NCc2ccccc2C(=O)NC2(c3ccc4ccccc4c3)CC2)cn1` [Example 182], the half-inhibitory concentration (IC50) under setting [1] was over 10 µM. In turn, `C[Si](C)(C)C#CCNC(=O)C(=O)NCc1ccccc1C(=O)NC1(c2ccc3ccccc3c2)CC1` [Example 202] showed an IC50 of over 10 µM.

For `CCOc1cccnc1C#CC1(NC(=O)C(=O)NCc2ccccc2C(=O)NC2(c3ccc4ccccc4c3)CC2)CC1` [Example 203], the concentration for half-maximal inhibition (IC50) under setting [1] is over 10 µM. As to `CC(C)[C@@H](C#Cc1ccccn1)NC(=O)C(=O)NCc1ccccc1C(=O)NC1(c2ccc3nn(C)cc3c2)CC1` [Example 204], the IC50 under setting [1] was over 10 µM. Consider `CC(C)[C@@H](C#Cc1ncccc1C(F)(F)F)NC(=O)C(=O)NCc1ccccc1C(=O)NC1(c2ccc3nn(C)cc3c2)CC1` [Example 205], for which the IC50 under setting [1] is over 10 µM. For `CC(C)[C@@H](C#Cc1ccccn1)NC(=O)C(=O)NCc1ccccc1C(=O)NC1(c2ccc3ccccc3c2)CC1` [Example 207], under setting [1], the IC50 was over 10 µM. On to `C[C@@H](C#Cc1ccc(C#N)cc1OC(F)(F)F)NC(=O)C(=O)NCc1ccccc1C(=O)NC1(c2ccc3ccccc3c2)CC1` [Example 208], for which, under setting [1], the IC50 was over 10 µM.

With `CN1CCC(n2cc(-c3cc(F)cc(C4(NC(=O)c5ccccc5CNC(=O)C(=O)NCC#Cc5cnc(F)nc5)CC4)c3)cn2)CC1` [Example 256], the 50% inhibitory concentration (IC50) under setting [1] was under 0.1 µM. With `CC(C)Oc1cccnc1C#C[C@H](C)NC(=O)C(=O)NCc1ccccc1C(=O)NC1(c2cc(F)cc(-c3cnn(C4CC4)c3)c2)CC1` [Example 268], the concentration for half-maximal inhibition (IC50) under setting [1] is 0.1 to 1 µM. In the case of `CC(C)n1nccc1C#CCNC(=O)C(=O)NCc1ccccc1C(=O)NC1(c2cc(F)cc(-c3cnn(C4CC4)c3)c2)CC1` [Example 278], the 50% inhibitory concentration (IC50) under setting [1] was in the range of 0.1 to 1 µM. Turning to `CC(C)(O)Cn1cc(-c2cc(F)cc(C3(NC(=O)c4ccccc4CNC(=O)C(=O)NCC#N)CC3)c2)cn1` [Example 282], the IC50 under setting [1] fell in the range of 0.1 to 1 µM. `N#CCNC(=O)C(=O)NCc1c(Cl)cccc1C(=O)NC1(c2cc(-c3cnn(C4CC4)c3)cc3ccccc23)CC1` [Example 291]: the IC50 under setting [1] is over 10 µM. In the case of `N#CCNC(=O)C(=O)NCc1ccccc1C(=O)NC1(c2ccc(F)c(OC(F)(F)F)c2)CC1` [Example 309], the IC50 under setting [1] was 1 to 10 µM. Same read-out and setting: with `N#CCNC(=O)C(=O)N1Cc2cccc(C(=O)NC3(c4cc(Br)cc5ccccc45)CC3)c2C1` [Example 315] the figure was 1 to 10 µM; with `N#CN1CCC[C@H]1CC(=O)NCc1ccccc1C(=O)NC1(c2cc(Br)cc3ccccc23)CC1` [Example 316], 0.1 to 1 µM. Consider `N#CCNC(=O)C(=O)NCc1ccccc1C(=O)NC1(c2cc(N3CCOC3=O)cc3ccccc23)CC1` [Example 317], for which, under setting [1], the IC50 was under 0.1 µM.

Turning to `C[C@@H](NC(=O)c1ccccc1CNC(=O)C(=O)NCC#N)c1cc(C(F)(F)F)nc2ccccc12` [Example 325], the IC50 under setting [1] was over 10 µM.

With `Cn1cc2c(F)c(C3(NC(=O)c4ccccc4CNC(=O)C(=O)NCC#N)CC3)ccc2n1` [Example 332], under setting [1], the IC50 was under 0.1 µM. Take `C#CCNC(=O)C(=O)NCc1ccccc1C(=O)NC1(c2cc(Cl)c3nn(C4CC4)cc3c2)CC1` [Example 339]: the 50% inhibitory concentration (IC50) under setting [1] is under 0.1 µM. Consider `Cn1cc2ccc(C3(NC(=O)c4ccccc4CNC(=O)C(=O)NCC#N)CC3)cc2n1` [Example 340], for which, under setting [1], the IC50 is 0.1 to 1 µM. Regarding `C[C@@H](NC(=O)c1cc(F)cc(F)c1CNC(=O)C(=O)NCC#N)c1cccc2ccccc12` [Example 361], the IC50 under setting [1] was over 10 µM.

Turning to `COC(=O)/C=C/CNC(=O)C(=O)NCc1ncoc1C(=O)N[C@H](C)c1cccc2ccccc12` [Example 364], the concentration for half-maximal inhibition (IC50) under setting [1] was over 10 µM.

Consider `C[C@@H](NC(=O)c1ocnc1CNC(=O)C(=O)NCC#N)c1cccc2ccccc12` [Example 365], for which the half-inhibitory concentration (IC50) under setting [1] is over 10 µM. As to `N#CCCNC(=O)C(=O)NCCc1ccccc1C(=O)NC1(c2ccc3ccccc3c2)CC1` [Example 368], under setting [1], the IC50 was over 10 µM.

For `N#CCNC(=O)C(=O)NCc1ccccc1C(=O)NC1(c2cc(C(F)(F)F)ccc2F)CC1` [Example 371], under setting [1], the half-inhibitory concentration (IC50) was 1 to 10 µM. For `N#CCNC(=O)C(=O)NCCc1ccccc1C(=O)NC1(c2ccc3ccccc3c2)CC1` [Example 372], the concentration for half-maximal inhibition (IC50) under setting [1] is over 10 µM. For `N#CCNC(=O)C(=O)NCc1ccccc1C(=O)NC1(c2cccc(Br)c2F)CC1` [Example 373], the IC50 under setting [1] is 0.1 to 1 µM. Still for that read-out and setting: the result for `C#CCNC(=O)C(=O)NCc1ccccc1C(=O)NC1(c2cccc3ncccc23)CC1` [Example 374] reads under 0.1 µM; that for `N#CCNC(=O)C(=O)NCc1ccccc1C(=O)NC1(c2cc(F)cc(C(F)(F)F)c2)CC1` [Example 375], 1 to 10 µM; that for `N#CCNC(=O)C(=O)NCc1ccccc1C(=O)NC1(c2cccc(C(F)(F)F)c2F)CC1` [Example 376], 0.1 to 1 µM. Regarding `N#CCNC(=O)C(=O)NCc1ccccc1C(=O)NC1(c2cc(C(F)(F)F)ccc2Cl)CC1` [Example 377], the IC50 under setting [1] was in the range of 0.1 to 1 µM. On the same count and under the same terms, with `N#CCNC(=O)C(=O)NCc1ccccc1C(=O)NC1(c2cccc(Cl)c2Cl)CC1` [Example 378] the figure was 0.1 to 1 µM; with `N#CCNC(=O)C(=O)NCc1ccccc1C(=O)NC1(c2cccc(-c3ccc(F)cc3)c2F)CC1` [Example 379], under 0.1 µM. The same measure, in the same setting: the result for `C#CCNC(=O)C(=O)NCc1ccccc1C(=O)NC1(c2ccc3ncccc3c2)CC1` [Example 388] reads under 0.1 µM; that for `O=C(NCC#Cc1nccs1)C(=O)NCc1ccccc1C(=O)NC1(c2ccc3ncccc3c2)CC1` [Example 389], under 0.1 µM.

Turning to `O=C(NCC#Cc1nccs1)C(=O)NCc1ccccc1C(=O)NC1(c2cccc3nc(C4CC4)ccc23)CC1` [Example 390], the concentration for half-maximal inhibition (IC50) under setting [1] was under 0.1 µM. `O=C(NCC#Cc1nccs1)C(=O)NCc1ccccc1C(=O)NC1(c2cccc3cnccc23)CC1` [Example 391]: the concentration for half-maximal inhibition (IC50) under setting [1] is under 0.1 µM. In the case of `C#CCNC(=O)C(=O)NCc1ccccc1C(=O)NC1(c2cc(-c3c(C)nn(C)c3C)ccc2Cl)CC1` [Example 395], under setting [1], the half-maximal inhibitory concentration (IC50) fell in the range of 0.1 to 1 µM. In the case of `Cn1ccc(C#CCNC(=O)C(=O)NCc2ccccc2C(=O)NC2(c3ccc4ccccc4c3)CC2)n1` [Example 397], the concentration for half-maximal inhibition (IC50) under setting [1] was in the range of 0.1 to 1 µM. As for `N#CCNC(=O)C(=O)NCc1ccccc1C(=O)NC1(c2ccc3nc(C4CC4)ccc3c2)CC1` [Example 400], the 50% inhibitory concentration (IC50) under setting [1] is under 0.1 µM. In the case of `O=C(NC/C=C\c1nccs1)C(=O)NCc1ccccc1C(=O)NC1(c2ccc3ccccc3c2)CC1` [Example 401], the IC50 under setting [1] is 1 to 10 µM.

As to `N#CCCCNC(=O)C(=O)NCc1ccccc1C(=O)NC1(c2ccc3ccccc3c2)CC1` [Example 403], the IC50 under setting [1] lay within 1 to 10 µM. Turning to `N#CCNC(=O)C(=O)NCc1ccccc1C(=O)NC1(c2cccn3nccc23)CC1` [Example 405], the IC50 under setting [1] was in the range of 0.1 to 1 µM. Consider `N#CCNC(=O)C(=O)NCc1ccccc1C(=O)NC1(c2ccnc3c2ccn3C2CC2)CC1` [Example 406], for which the IC50 under setting [1] is under 0.1 µM. On to `N#CCNC(=O)C(=O)NCc1ccccc1C(=O)NC1(c2ccnc3ccccc23)CC1` [Example 407], for which the 50% inhibitory concentration (IC50) under setting [1] was under 0.1 µM.

Regarding `N#CCNC(=O)C(=O)NCc1ccccc1C(=O)NC1(c2c[nH]c3ncccc23)CC1` [Example 408], the 50% inhibitory concentration (IC50) under setting [1] is under 0.1 µM.

As for `O=C(NCC#Cc1ccc2c(c1)CNC2=O)C(=O)NCc1ccccc1C(=O)NC1(c2ccc3ccccc3c2)CC1` [Example 410], the IC50 under setting [1] is 0.1 to 1 µM. As to `N#CCCCNC(=O)C(=O)NCc1ccccc1C(=O)NC1(c2cccc3ccccc23)CC1` [Example 412], the IC50 under setting [1] was 1 to 10 µM.

For the compound `N#CCNC(=O)C(=O)NCc1ccccc1C(=O)NC1(c2cc(-c3cnn(C4CC4)c3)nc3[nH]ccc23)CC1` [Example 414], the IC50 under setting [1] lay in the range of 0.1 to 1 µM.

For `N#CCCOC(=O)NCc1ccccc1C(=O)NC1(c2cc(Br)cc3ccccc23)CC1` [Example 420], under setting [1], the IC50 lay within 1 to 10 µM. Regarding `N#CCCCCNC(=O)C(=O)NCc1ccccc1C(=O)NC1(c2cc(Br)cc3ccccc23)CC1` [Example 421], under setting [1], the half-inhibitory concentration (IC50) lay in the range of 1 to 10 µM. `CC(C)(O)/C=C/c1cc(C2(NC(=O)c3ccccc3CNC(=O)C(=O)NCC#N)CC2)c2ccccc2c1` [Example 422]: the IC50 under setting [1] was under 0.1 µM. The same measure, in the same setting: the result for `N#CN1CC(CNC(=O)C(=O)NCc2ccccc2C(=O)NC2(c3ccc4ccccc4c3)CC2)C1` [Example 430] reads 0.1 to 1 µM; that for `N#CN1CC(CCNC(=O)C(=O)NCc2ccccc2C(=O)NC2(c3cccc4ccccc34)CC2)C1` [Example 433], 1 to 10 µM.

Source of the values: US20240327334A1, “Covalent Inhibitors As Antiviral Agents” (Enanta Pharmaceuticals, Inc., priority 2022, published 2024).
